Results published in patent US11242344B2, “(4-hydroxypyrrolidin-2-yl)-heterocyclic compounds and methods of use thereof” (Genentech, Inc., priority 2017, dated 2022).

Assays:
[1] = test system: MYC expression; assay: Inhibition of MYC expression in MV-4-11 cells; assay type: cell-based; conditions: 4 h; for IC50: QuantiGene 2.0, geometric mean; for Maximum Inhibition (%): maximum inhibition of MYC expression
Experimental: Pharmacologic inhibition of MYC is achievable through targeting BET bromodomains through small molecule binder or degrader mechanisms. Such inhibitors may have clinical utility given the widespread pathogenetic role of MYC in cancer. See, e.g., Mertz J, et al., “Targeting MYC dependence in cancer by inhibiting BET bromodomains,” (2011) Proc. Natl. Acad. Sci. USA, Vol. 108 (40), pp. 16669-16674.
To determine the inhibition of MYC expression, MV-4-11 cells (ATCC) were plated at 10,000 cells per well in 96-well plates in RPMI1640 media supplemented with 10% fetal bovine serum and 2 mM L-glutamine. Test compounds diluted in DMSO were transferred to the cell plates, keeping final DMSO concentration consistent at 0.1%, and incubated for 4 h at 37° C. Lysis and analysis for MYC expression were carried out using QuantiGene 2.0 reagents (Affymetrix/eBioscience, probe set cat #SA-50182) and following the vendor's instructions. Luminescence was read using an EnVision plate reader (PerkinElmer) and IC50s generated in Genedata Screener using a 4-parameter non-linear regression fit.
Effective degraders will surpass this and inhibit >95% of MYC, thus following the maximum inhibition within this assay provides valuable SAR. Where more than one measurement was performed for the same assay, the value reported is the geometric mean of all values.

[2] = biological target: BRD4 (Homo sapiens (Human), UniProt O60885); assay: BRD4 degradation assay in PC3 (Steap-1) prostate cancer cells, high content fluorescence imaging; assay type: cell-based; conditions: PC3 (Steap-1) cells, 4 hours; for DC50: BRD4 immunofluorescence, read-out: PC3 (Steap-1) EC50; for PC3 (Steap-1) Sinf (%): maximum degradation, percent change in protein level (-100% = complete loss)
Experimental: PC3 (Steap-1) prostate cancer cells: PC3 (Steap-1) prostate cancer cells (PC3 cells overexpressing the surface protein Steap-1) were seeded on day 1 at a density of 200,000 cells/mL in 45 μl/well in cell plates in a 384 well Greiner/Perkin Elmer Cell Carrier TC Treated plate (part #6007430) in Assay Medium (RPMI, 10% FBS, 2 mM Glutamax). Cells were incubated overnight at 37° C. degrees. On day 2, compounds were serially diluted 3-fold in DMSO spanning the concentrations 10 mM to 8.6 nM, in 384 well clear polypropylene plates (Greiner Cat #781201). DMSO and 10 mM of a control PROTAC (dBET1, as described in WO 2017/024317, p. 235, structure below) (control compound) were added to designated wells. Compounds and controls were diluted 50-fold (2 μl of DMSO stock into 98 μl) into Assay Medium. 5 μl of the diluted compounds was transferred to the cell plates. The final top concentration of the test compounds in the cell plates was 20 μM. Cell plates were incubated at 37° C., for 4 hours. Fixation and permeabilization were carried out using a Biotek EL406 plate washer and dispenser as follows. Cells were fixed by addition of 15 μL of 16% paraformaldehyde (Electron Microscopy Sciences #15710-S) directly to the 50 μL cell culture medium in each well using the peristaltic pump 5 μL cassette on a Biotek EL406 (final concentration of formaldehyde was 3.7% w/v). Samples were incubated 30 minutes. Well contents were aspirated and 50 μL/well of Phosphate Buffered Saline (PBS) containing 0.5% w/v bovine serum albumen, 0.5% v/v Triton X-100 (Antibody Dilution Buffer) was added to each well. Samples were incubated for 30 minutes. Well contents were aspirated and washed 3 times with 100 μL/well of PBS.
For both the PC3 and EOL-1 cell assays, immunofluorescence staining of BRD4 was carried out using a Biotek EL406 plate washer and dispenser as follows. The well supernatant was aspirated from the wells and 25 μL/well of rabbit mAb Anti-BRD4 [EPR5150(2)] abeam 128874 diluted 1:500 in Antibody Dilution Buffer is dispensed. Samples were incubated for 2 hours at room temperature. Samples were washed 4 times with 100 μL/well of PBS. 25 μL/well of secondary antibody solution (Goat Anti-Rabbit IgG, DyLight 488 Conjugated Highly Cross-adsorbed #35553 1:1000) diluted 1:1000 and Hoechst 33342 1 μg/ml diluted in Antibody Dilution Buffer) were dispensed into each well. 16 wells of the plate, which were designated as ‘no primary antibody” wells, received only Antibody Dilution Buffer (without anti-BRD4 antibody). Samples were incubated for 2 hours at room temperature. Samples were washed 3 times with 100 μL/well of PBS using a Biotek EL406. Quantitative fluorescence imaging of BRD4 was carried out using a Phenix (Perkin Elmer). Fluorescence images of the samples (Channel 1: Hoechst33342 (DNA stain); Channel 2: 488 nm (BRD4 stain)) were acquired. Channel 1 (DNA stain) was used to define the “Region of Interest” (ROI) nuclear region. Measurements of BRD4 average immunofluorescence intensity within the ROI (nuclear region), were made on a per cell basis and averaged over all the measured cells. Data analysis was carried out using Genedata Screener Software, with DMSO and “no primary antibody” samples being used to define the 0% and 100% changes in BRD4. The “Robust Fit” method was used to define the inflexion point of curve (EC50) and the plateau of the maximal effect (Sinf). The Sinf value reports degradation as percent change in protein level, so complete loss of the protein target is −100%. […]

| IC50 [1] | DC50 [2] | PC3 (Steap-1) Sinf (%) [2] | Structure (SMILES) | Maximum Inhibition (%) [1] |
| --- | --- | --- | --- | --- |
| 27.4 nM | 140 nM | −29.0% | Cc1ncsc1-c1ccc([C@]2(C)NC(C3C[C@@H](O)CN3C(=O)C(c3cc(OCCCCCNC(=O)c4cc5c(cc4CS(C)(=O)=O)-c4cn(C)c(=O)c6[nH]cc(c46)CN5c4ncc(F)cc4F)no3)C(C)C)=NC2=O)cc1 (single isomer, unassigned) [Example 1001.3] | 79.2% |
| 1.71 nM | 3.3 nM | −97.2% | Cc1ncsc1-c1ccc([C@]2(C)NC(C3C[C@@H](O)CN3C(=O)C(c3cc(OCCCCCNC(=O)c4cc5c(cc4CS(C)(=O)=O)-c4cn(C)c(=O)c6[nH]cc(c46)CN5c4ncc(F)cc4F)no3)C(C)C)=NC2=O)cc1 (single isomer, unassigned) [Example 1001.2] | 98.4% |
| 17.4 nM | > 20000 nM |  | Cc1ncsc1-c1ccc([C@]2(C)NC(C3C[C@@H](O)CN3C(=O)C(c3cc(OCCCCCNC(=O)c4cc5c(cc4CS(C)(=O)=O)-c4cn(C)c(=O)c6[nH]cc(c46)CN5c4ncc(F)cc4F)no3)C(C)C)=NC2=O)cc1 (single isomer, unassigned) [Example 1001.1] | 82.3% |
